Test results taken from US20200015478A1, “ANTIBACTERIAL COMPOSITION CONTAINING CARYOLAN-1-OL” (INDUSTRY-ACADEMIC COOPERATION FOUNDATION GYEONGSANG …, priority 2016, published 2020).

Test system: Botrytis cinerea
Test: Mycelium growth rate of Botrytis cinerea with synthesized caryolan-1-ol vapour from paper disc
Format: cell-based
Conditions: Botrytis cinerea on PDA, 10 μl acetone solution on paper disc, sealed, 27° C., 4 days, FIG. 6
Method: Next, in order to verify the antibacterial activity of the synthesized caryolan-1-ol, PDA (Potato starch 4 g, dextrose 20 g, Agar 20 g with respect to 1 liter) medium was prepared so as to allow 60 mm Petri dishes to have 12 ml space. Botrytis cinerea was inoculated with a radius of 2 mm Based on the concentration at which caryolan-1-ol was completely gaseous, caryolan-1-ol was dissolved in acetone, and then the solution was treated to the paper disc placed on a lid at 10 μl each. After sealing, they were cultured at 27° C., and the growth rate of mycelium was measured for 4 days. The growth rate for the acetone treatment group was determined.

CC12CCCC(O)(C1)C1CC(C)(C)C1CC2 (stereo not shown) [caryolan-1-ol]
growth rate of mycelium relative to acetone treatment group: significantly inhibited the growth
